{"source": "patent US7427591B2", "about": "“Suppression of immune response via inhibition of cathepsin S” (Massachusetts Institute of Technology, priority 1996, dated 2008)", "key": {"[1]": {"system": "Ii processing in HOM2 cells", "assay": "35S pulse/chase of HOM2 cells, Tu36 immunoprecipitation, SDS-PAGE: Ii processing and SDS-stable class II peptide complexes", "type": "cell-based, human", "settings": "E64D", "text": "Lysates were precleared with protein A-agarose.\nSamples were eluted with SDS-PAGE sample buffer."}, "cathepsin D": {"molecular_target": "cathepsin D (Homo sapiens, UniProt P07339)", "sequence (P07339 65-412, species assumed)": "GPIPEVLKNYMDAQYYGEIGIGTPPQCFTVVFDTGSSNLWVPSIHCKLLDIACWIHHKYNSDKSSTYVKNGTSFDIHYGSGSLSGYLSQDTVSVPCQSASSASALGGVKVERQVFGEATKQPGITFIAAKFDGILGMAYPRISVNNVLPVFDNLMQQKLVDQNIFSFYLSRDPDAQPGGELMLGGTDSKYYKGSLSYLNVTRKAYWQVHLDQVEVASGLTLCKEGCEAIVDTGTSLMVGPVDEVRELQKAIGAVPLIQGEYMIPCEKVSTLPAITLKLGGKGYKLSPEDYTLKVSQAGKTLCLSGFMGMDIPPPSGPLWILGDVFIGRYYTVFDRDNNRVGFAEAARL", "settings": "Alteri et al. 1993; cited from earlier work"}, "cathepsin B": {"molecular_target": "cathepsin B (Homo sapiens, UniProt P07858)", "assay": "Active site labeling of cysteine proteases with Cbz-[125I]-Tyr-Ala-CN2 in HOM2 cells: cathepsin B", "type": "cell-based", "text": "SIDS, 1% Triton X-100 on ice."}, "cathepsin S": {"molecular_target": "cathepsin S (Homo sapiens, UniProt P25774)", "sequence (P25774 115-331)": "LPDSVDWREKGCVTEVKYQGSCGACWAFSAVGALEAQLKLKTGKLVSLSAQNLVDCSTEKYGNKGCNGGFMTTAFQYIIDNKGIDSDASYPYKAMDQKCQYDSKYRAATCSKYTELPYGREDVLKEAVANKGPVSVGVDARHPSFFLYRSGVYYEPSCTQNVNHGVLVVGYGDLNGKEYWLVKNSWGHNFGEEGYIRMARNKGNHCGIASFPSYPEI", "assay": "Active site labeling of cysteine proteases with Cbz-[125I]-Tyr-Ala-CN2 in HOM2 cells: cathepsin S", "type": "cell-based"}, "human cathepsin H": {"molecular_target": "T1, human cathepsin H (Homo sapiens, UniProt P09668)", "T1 construct": "purchased Calbiochem-Novabiochem Corp., San Diego, Calif", "T1 sequence (P09668 98-335)": "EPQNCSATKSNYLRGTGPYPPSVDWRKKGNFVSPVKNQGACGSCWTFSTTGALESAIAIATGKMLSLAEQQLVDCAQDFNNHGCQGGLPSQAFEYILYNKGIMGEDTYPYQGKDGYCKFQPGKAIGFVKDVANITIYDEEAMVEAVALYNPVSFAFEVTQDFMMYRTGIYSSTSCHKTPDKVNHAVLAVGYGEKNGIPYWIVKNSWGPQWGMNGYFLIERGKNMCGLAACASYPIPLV", "assay": "Inhibition of purified human cathepsin H", "type": "biochemical", "settings": "purified enzyme", "text": "Purified human cathepsin H (obtained from Calbiochem-Novabiochem Corp., San Diego, Calif.) was not inhibited with LHVS nor did it display any proteolytic activity against immunoprecipitated αβIi, implying that cathepsin H is not an essential protease for Ii degradation."}, "[2]": {"system": "Ii processing in HOM2 cells", "settings": "leupeptin; Neefjes and Ploegh 1992; cited from earlier work"}, "multiple sclerosis": {"system": "multiple sclerosis", "assay": "Treating multiple sclerosis in a human", "settings": "intravenous injection once a day, 500 mg/70 kg body weight"}, "pemphigus vulgaris": {"system": "pemphigus vulgaris", "assay": "Treating pemphigus vulgaris in a human", "type": "in vivo", "settings": "topical ointment 50 mg/gm, daily", "protocol": "The dose is 50 mg/gm of ointment and is applied daily to the affected area."}}, "data": [{"molecule": "CCOC(=O)[C@H]1O[C@@H]1C(=O)N[C@@H](CC(C)C)C(=O)NCCC(C)C", "note": "(relative stereo) [E64D]", "values": [{"measurement": "SDS-stable dimer formation", "setting": "[1]", "value": "decrease in SDS-stable dimer formation"}]}, {"molecule": "CC(C)[C@H](NC(=O)[C@H](Cc1ccccc1)C[C@H](O)[C@H](Cc1ccccc1)NC(=O)OC(C)(C)C)C(=O)N[C@@H](Cc1ccccc1)C(=O)N1CCOCC1", "note": "[CGP 53437]", "values": [{"measurement": "inhibits cathepsin D (potency range)", "setting": "cathepsin D", "value": "nanomolar range"}]}, {"molecule": "CC(C)C[C@H](NC(=O)N1CCOCC1)C(=O)N[C@H](/C=C/S(=O)(=O)c1ccccc1)CCc1ccccc1", "note": "[LHVS, morpholinurea-leucine-homophenylalanine-vinylsulfone phenyl]", "values": [{"measurement": "labeling of cathepsin B with Cbz-[125I]-Tyr-Ala-CN2", "setting": "cathepsin B; LHVS 1 nM", "value": "but not cathepsin B"}, {"measurement": "labeling of cathepsin B with Cbz-[125I]-Tyr-Ala-CN2", "setting": "cathepsin B; LHVS 5 nM", "value": "decreased, although some activity remained"}, {"measurement": "concentrations that specifically inhibit cathepsin S, leaving other cysteine proteases functionally active", "setting": "cathepsin S", "value": "1 to 5", "unit": "nM"}, {"measurement": "labeling of cathepsin S with Cbz-[125I]-Tyr-Ala-CN2", "setting": "cathepsin S; LHVS 1 nM, 1 hour preincubation at 37° C.", "value": "effectively inhibited"}, {"measurement": "inhibition of purified human cathepsin H", "setting": "human cathepsin H", "value": "not inhibited"}]}, {"molecule": "CC(=O)N[C@@H](CC(C)C)C(=O)N[C@@H](CC(C)C)C(=O)N[C@H](C=O)CCCNC(=N)N", "note": "[leupeptin]", "values": [{"measurement": "SDS-stable complexes (peptide-loaded αβ-dimers)", "setting": "[2]", "value": "decrease"}]}, {"molecule": "Leu-Arg-Met-vinylsulfone", "values": [{"measurement": "effect on multiple sclerosis", "setting": "multiple sclerosis", "value": "alleviates the effects of multiple sclerosis"}]}, {"molecule": "N-(carboxybenzyl)-Arg-Met-vinylsulfone", "values": [{"measurement": "effect on pemphigus vulgaris", "setting": "pemphigus vulgaris", "value": "alleviates the effects of pemphigus vulgaris"}]}]}
